Laboratory results from patent publication US9719981B2, “RAC1 inhibitors for the treatment of alport glomerular disease” (Father Flanagan's Boys' Home, priority 2012, dated 2017).
Like-named read-outs stand apart in the source and are kept apart here.

Tested on: 129 Sv/J autosomal Alport mice
Assay type: in vivo
Description: Immunofluorescence microscopy. Fresh frozen kidneys were sectioned at 8-μm and acetone fixed. Sections were incubated overnight at 4° C. in primary antibody solution. The dual stain consisting of rat anti-mouse Laminin-α2 antibody (Sigma-Aldrich, St. Louis, Mo.) at 1:200 and rabbit anti-mouse phospho-FAK 397 antibody at 1:25 as well as the dual stain of goat anti-mouse Integrin α8 antibody (R & D Systems, Minneapolis, Minn.) at 1:1000 and rabbit anti-mouse Laminin-5 antibody, at 1:1000 were diluted in 0.3% PBST+5% FBS. Rabbit anti-mouse Fibronectin antibody at 1:300 and rat anti-mouse CD11b antibody at 1:100 were diluted in 7% Milk. Slides were rinsed with 1×PBS and incubated with the appropriate Alexa Fluor donkey secondary antibodies at 1:300 for 1 hour at room temperature. They were then rinsed again with 1×PBS and mounted with Vectashield Mounting Medium with DAPI (Vector, Burlingame, Calif.). The dual stain of mouse-anti rat Laminin α1 antibody at 1:300 and rabbit anti-mouse phospho-FAK 397 antibody at 1:25 were diluted in 0.3% PBST+5% NGS and incubated overnight at 4° C. Slides were rinsed with 1×PBS and incubated with the appropriate Alexa Fluor goat secondary antibodies at 1:300 for 1 hour at room temperature. They were then rinsed again with 1×PBS and mounted with Vectashield Mounting Medium with DAPI.
Real time qRT-PCR. Total RNA was reverse transcribed using […]® III (Invitrogen, Life Technologies, Grand Island, N.Y.) with Oligo(dT)20 Primer (Invitrogen). The real time PCR was carried out using TAQMAN® Gene Expression Master Mix (Applied Biosystems, Life Technologies, Grand Island, N.Y.), and quantified using STEPONEPLUS™ Real-Time PCR System (Applied Biosystems). Samples were normalized to Mouse GAPDH Endogenous Control VIC® Probe (Applied Biosystems catalogue #4352339E) which was run alongside MMP-9 (Catalog #4331182, ID# Mm00442991_m1), MMP-10 (Catalog #4331182, ID# Mm00444630_m1), MMP-12 (Catalog #4331182, ID# Mm00500554_m1), IL-6 (Catalog #4331182, ID# Mm00446190_m1), NFKbia (Catalog #4331182, ID# Mm00477798_m1), and FAK (Catalog #4331182, ID# Mm00433209_m1) TAQMAN® Gene Expression Assay Probes (Applied Biosystems). Samples were run in triplicate with a final reaction volume of 20 ul with the following cycling parameters: 50° C. for 2 min, 95° C. for 10 min, followed by 40 cycles of a two-step PCR consisting of 95° C. for 15 s and 60° C. for 1 min. Relative changes in gene expression were determined by calculating the fold change using the comparative CT method of 2^−ΔΔCT. Data are expressed as the mean with standard deviation for at least four independent RNA samples per data point.
Treatment of mice with TAE226. Four Col 4A3 knockout mice from 129 Sv/J background were given 50 mg/Kg TAE226 (ChemScene, LLC Monmouth Junction, N.J.) 1× daily by gavage needle starting at two weeks of age until seven weeks old. The TAE226 was diluted in a 0.5% carboxy methyl cellulose suspension. Three control Col 4a3 knockout mice of the same age were given 0.5% CMC suspension alone and served as controls.
Albumin and creatinine assays. Urine was collected weekly and albumin concentrations were analyzed as instructed using a mouse albumin ELISA kit #MSAKT from Molecular Innovations (Novi, Mich.). Albumin levels were normalized to creatinine using QuantiChrom Creatinine Assay Kit (DICT-500) (BioAssay Systems, Hayward, Calif.) as instructed.
Transmission electron microscopy. Transmission electron microscopy was performed as described previously (Cosgrove et al., 2000, Am J Pathol; 157: 1649-1659).

[1] = 50 mg/Kg daily, 2 to 7 weeks, relative to vehicle
[2] = at 6 weeks of age, relative to vehicle
[3] = by 7 weeks of age, relative to vehicle

SMILES: CNC(=O)c1ccccc1Nc1nc(Nc2ccc(N3CCOCC3)cc2OC)ncc1Cl [TAE226]
- pFAK immunostaining in podocytes in vivo (50 mg/Kg 1× daily by gavage, two to seven weeks of age): abolished
- Glomerular mRNA expression level of MMP-9 [1]: significantly reduced
- Glomerular mRNA expression level of MMP-10 [1]: significantly reduced
- Glomerular mRNA expression level of MMP-12 [1]: significantly reduced
- Monocytic infiltration (CD11b immunostaining) (7 weeks of age): remarkably robust reduction
- Renal scarring (fibronectin immunostaining) (7 weeks of age): remarkably robust reduction
- GBM architecture (transmission electron microscopy) (7 weeks of age, relative to vehicle): markedly improved
- Glomerulosclerosis (Alport mice): ameliorated
- Blood urea nitrogen levels [2]: significant reduction
- Proteinuria [2]: significant reduction
- Blood urea nitrogen levels [3]: loose significance
- Proteinuria [3]: loose significance
- Mesangial process invasion of glomerular capillary loops (integrin α8 / laminin α5 immunostaining, vs vehicle): amelioration
